Reference: patent publication US11376229B2, “Method of treating or preventing neurodegeneration” (Reprise Pharmaceuticals, Inc., priority 2011, dated 2022)

Legend:
WT EAE mice [1] = test: EAE clinical disability scores, MOG35-55-immunized mice treated with glibenclamide; assay type: in vivo; settings: 10 μg daily i.p. from first clinical symptoms (day 8), vs vehicle (DMSO) control, P<0.05
TRPM4 = TRPM4 (Homo sapiens, UniProt Q8TD43); settings: reported by Damien et al. 2007; Becerra et al. 2011; cited from earlier work
WT EAE mice [2] = test: Immunohistochemical count of axons (SMI 31/SMI 32) and neuronal somata (NeuN) in cervical spinal cord of EAE mice; assay type: in vivo; settings: 30 days post immunization, vs vehicle control
Trpm4−/− EAE mice = test: EAE clinical disability scores in Trpm4-/- mice treated with glibenclamide; assay type: in vivo; settings: 10 μg daily i.p. from day 8, vs DMSO control

Chain of TRPM4 (Q8TD43 whole entry, species assumed): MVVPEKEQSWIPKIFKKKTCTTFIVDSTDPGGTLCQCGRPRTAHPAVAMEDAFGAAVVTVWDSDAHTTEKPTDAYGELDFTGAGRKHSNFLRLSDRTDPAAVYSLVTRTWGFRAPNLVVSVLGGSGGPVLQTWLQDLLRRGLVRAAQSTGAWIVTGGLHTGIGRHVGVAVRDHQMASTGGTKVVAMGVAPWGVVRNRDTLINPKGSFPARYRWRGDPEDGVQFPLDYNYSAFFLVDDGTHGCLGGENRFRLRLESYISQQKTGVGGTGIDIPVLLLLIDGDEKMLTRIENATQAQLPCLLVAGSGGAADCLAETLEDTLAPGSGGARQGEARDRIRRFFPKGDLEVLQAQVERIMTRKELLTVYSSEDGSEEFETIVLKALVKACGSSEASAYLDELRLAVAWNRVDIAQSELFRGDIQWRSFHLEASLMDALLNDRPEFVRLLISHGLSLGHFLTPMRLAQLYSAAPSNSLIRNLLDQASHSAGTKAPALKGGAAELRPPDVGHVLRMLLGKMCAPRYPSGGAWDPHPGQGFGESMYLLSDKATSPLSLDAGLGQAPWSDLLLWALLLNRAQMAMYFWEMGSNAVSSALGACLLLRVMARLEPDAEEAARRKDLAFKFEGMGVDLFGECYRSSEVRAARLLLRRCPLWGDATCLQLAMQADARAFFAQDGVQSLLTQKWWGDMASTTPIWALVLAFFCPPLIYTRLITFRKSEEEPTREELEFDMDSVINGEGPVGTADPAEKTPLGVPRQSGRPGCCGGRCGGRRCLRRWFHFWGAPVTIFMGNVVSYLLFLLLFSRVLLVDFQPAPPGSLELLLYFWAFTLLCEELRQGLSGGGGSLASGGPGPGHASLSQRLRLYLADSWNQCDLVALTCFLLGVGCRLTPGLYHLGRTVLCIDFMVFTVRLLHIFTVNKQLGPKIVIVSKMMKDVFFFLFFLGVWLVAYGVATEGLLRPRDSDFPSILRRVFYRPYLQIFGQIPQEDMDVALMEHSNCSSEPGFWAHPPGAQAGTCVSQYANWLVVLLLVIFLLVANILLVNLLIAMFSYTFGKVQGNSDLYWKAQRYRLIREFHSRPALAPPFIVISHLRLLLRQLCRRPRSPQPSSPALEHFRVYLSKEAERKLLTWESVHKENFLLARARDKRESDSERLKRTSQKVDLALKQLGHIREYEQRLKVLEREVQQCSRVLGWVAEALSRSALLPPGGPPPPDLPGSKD

## COc1ccc(Cl)cc1C(=O)NCCc1ccc(S(=O)(=O)NC(=O)NC2CCCCC2)cc1 [glibenclamide]
WT EAE mice [1]
  clinical disability (mean clinical disability score): ameliorated disability
TRPM4
  TRPM4 inhibition: effectively inhibit TRPM4
WT EAE mice [2]; P<0.01
  number of axons in the corticospinal tract: preservation of axons
WT EAE mice [2]; P<0.05
  number of axons in the dorsal column: preservation of axons
WT EAE mice [2]; did not reach statistical significance
  neuronal cell body loss in the gray matter of the spinal cord: slightly diminished
Trpm4−/− EAE mice
  clinical disability (mean clinical disability score): no additional clinical improvement
